Assay results as given in PubChem BioAssay AID2060503 (Molecular Pharmacology Branch, DTP, NCI, 2025).

Tested on: 817829-284-R-J1-PDC complex spheroids, viability
Experiment: Anticancer human tumor 817829-284-R-J1-PDC patient-derived colon adenocarcinoma cell line growth inhibition [GQUAD]
Settings: for IC50: curve of first compound; for viability, T/C: stronger effect = lower value
Source text: DNA G-quadruplex Stabilizer Agents in Combinations in Complex Spheroids
A high-throughput screen of multi-cell type tumor spheroids was designed to identify active combinations of DNA G-quadruplex stabilizer agents and targeted small molecules. Complex spheroids include a stromal component modeled by human endothelial cells (HUVEC) and fibroblasts modeled by human mesenchymal stem cells (MSCs). The concentration ranges selected for each drug and investigational agent were based upon clinically achievable concentrations if the clinical Cmax of the agent was known.
Compounds. The drugs and investigational agents: pidnarulex (CX-5461; NSC782164), APTO-253 (NSC789042), BRACO-19 (NSC847499), peposertib (NSC802822), ceralasertib (NSC780249), elimusertib (NSC800525), camonsertib (NSC841442), AZD-1390 (NSC803789), olaparib (NSC753686), talazoparib (NSC767125), ART-558 (NSC835418), sotorasib (NSC818433), MRTX-1133 (NSC836407), SN-38 (NSC673596), topotecan (NSC609699), etoposide (NSC141540), doxorubicin (NSC123127), gemcitabine (NSC613327), 5-fluorouracil (NSC19893), paclitaxel (NSC125973), vemurafenib (NSC761431), panobinostat (NSC761190), R-306465 (JNJ-16241199; NSC773264), adavosertib (NSC754352), TP-3654 (NSC805149), carboplatin (NSC241240), KSQ-4279 (NSC840948), and staurosporine (NSC755774) were obtained from the National Cancer Institute (NCI) Developmental Therapeutics Program Chemical Repository (34). The FDA-approved anticancer drug set is available from the NCI Developmental Therapeutics Program. […] The stock solutions were prepared in dimethyl sulfoxide (DMSO, Sigma-Aldrich, St. Louis, MO, cat. D2650) at 800-fold the tested concentration and stored at -70 degrees C prior to their use. All drugs and investigational agents were tested over a range starting from a high concentration at or near the clinical Cmax and decreasing in half-log increments. If the clinical Cmax for an agent had not been determined, the highest concentration tested was 10 microM.
2.3 Cell Culture. All cells were maintained in an incubator at 37 degrees C and 5% CO2 with 95% humidity. The PDC lines were cultured according to standard operating procedures established by the NCI PDMR. All PDCs were thawed and cultured in Matrigel-coated flasks prepared with a working solution of 1X Ham's F-12 nutrient mix, without supplementation (Invitrogen, cat. 11765054), 100 U/mL penicillin-streptomycin (Invitrogen, cat. 15140122), and 2.5% Matrigel (Corning Inc., cat. 354248) for the first three passages. The 857933-349-R-J2-PDC line was cultured in 6C/Colon 1B media, which includes advanced DMEM/F-12 (Thermo Fisher Scientific, cat. 12634028), 10 mM HEPES (Thermo Fisher Scientific, cat. 15630080), 1X GlutaMAX supplement (Thermo Fisher Scientific, cat. 35050061), 0.1 mg/mL primocin (InvivoGen, cat. ant-pm-2), 10% defined fetal bovine serum, heat inactivated (HyClone Laboratories Inc., cat. SH30070.03HI), 50% L-WRN conditioned media (ATCC, cat. CRL-3276), 1.25 mM N-Acetyl-L-cysteine (Sigma-Aldrich, cat. A9165), 10 mM nicotinamide (Sigma-Aldrich, cat. N0636), 1X B-27 supplement (Thermo Fisher Scientific, cat. 17504044), 1X N-2 supplement (Thermo Fisher Scientific, cat. 17502048), 10 microM Y-27632 dihydrochloride (Tocris Bioscience, cat. 1254), and 50 ng/mL human EGF recombinant protein (Thermo Fisher Scientific, cat. PHG0311). The 485176-168-R4-J1-PDC line was cultured in Panc media, which includes all 6C/Colon 1B media components plus 100 ng/mL human FGF-10 (Thermo Fisher Scientific, cat. 100-26), 500 nM SB-431542 (Selleckchem, cat. S1067), and gastrin (Tocris, cat. 3006).
[…]
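Also: spheroids exposed to agents for 7 days before readout.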
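For viability, T/C in this document: percent viability relative to DMSO vehicle control taken as 100%.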

C=CC(=O)N1CCN(c2nc(=O)n(-c3c(C)ccnc3C(C)C)c3nc(-c4c(O)cccc4F)c(F)cc23)C(C)C1 (configuration not stated) + CN(C)c1ccc(Nc2c3ccc(NC(=O)CCN4CCCC4)cc3nc3cc(NC(=O)CCN4CCCC4)ccc23)cc1
IC50 (second compound 0.0316 µM): > 10 µM | IC50 (second compound 0.1 µM): > 10 µM | IC50 (second compound 0.316 µM): > 10 µM | IC50 (second compound 1 µM): > 10 µM | IC50 (second compound 3.16 µM): > 10 µM | IC50 (second compound 10 µM): 7.18 µM | viability, T/C (second compound 0.0316 µM, first compound 0.0316 µM): 101% | viability, T/C (second compound 0.0316 µM, first compound 0.1 µM): 103% | viability, T/C (second compound 0.0316 µM, first compound 0.316 µM): 97.5% | viability, T/C (second compound 0.0316 µM, first compound 1 µM): 99.4% | viability, T/C (second compound 0.0316 µM, first compound 3.16 µM): 83.7% | viability, T/C (second compound 0.0316 µM, first compound 10 µM): 80% | viability, T/C (second compound 0.1 µM, first compound 0.0316 µM): 99.7% | viability, T/C (second compound 0.1 µM, first compound 0.1 µM): 103% | viability, T/C (second compound 0.1 µM, first compound 0.316 µM): 104% | viability, T/C (second compound 0.1 µM, first compound 1 µM): 98.7% | viability, T/C (second compound 0.1 µM, first compound 3.16 µM): 106% | viability, T/C (second compound 0.1 µM, first compound 10 µM): 85.4% | viability, T/C (second compound 0.316 µM, first compound 0.0316 µM): 91.3% | viability, T/C (second compound 0.316 µM, first compound 0.1 µM): 107% | viability, T/C (second compound 0.316 µM, first compound 0.316 µM): 89.6% | viability, T/C (second compound 0.316 µM, first compound 1 µM): 108% | viability, T/C (second compound 0.316 µM, first compound 3.16 µM): 86.3% | viability, T/C (second compound 0.316 µM, first compound 10 µM): 76.2% | viability, T/C (second compound 1 µM, first compound 0.0316 µM): 96.2% | viability, T/C (second compound 1 µM, first compound 0.1 µM): 107% | viability, T/C (second compound 1 µM, first compound 0.316 µM): 92.3% | viability, T/C (second compound 1 µM, first compound 1 µM): 105% | viability, T/C (second compound 1 µM, first compound 3.16 µM): 92.2% | viability, T/C (second compound 1 µM, first compound 10 µM): 72.1% | viability, T/C (second compound 3.16 µM, first compound 0.0316 µM): 95.6% | viability, T/C (second compound 3.16 µM, first compound 0.1 µM): 97.5% | viability, T/C (second compound 3.16 µM, first compound 0.316 µM): 98.8% | viability, T/C (second compound 3.16 µM, first compound 1 µM): 92.3% | viability, T/C (second compound 3.16 µM, first compound 3.16 µM): 92.3% | viability, T/C (second compound 3.16 µM, first compound 10 µM): 69.3% | viability, T/C (second compound 10 µM, first compound 0.0316 µM): 101% | viability, T/C (second compound 10 µM, first compound 0.1 µM): 105% | viability, T/C (second compound 10 µM, first compound 0.316 µM): 92.7% | viability, T/C (second compound 10 µM, first compound 1 µM): 92.3% | viability, T/C (second compound 10 µM, first compound 3.16 µM): 84.3% | viability, T/C (second compound 10 µM, first compound 10 µM): 36.4%
